Results published in publication PMC7582507, “SARs for the Antiparasitic Plant Metabolite Pulchrol. Part 2: B- and C-Ring Substituents” (Molecules, 2020).
Read-outs that look alike come from different tables or passages of the source.

Legend:
[1] = Cytotoxicity on RAW cells (resazurin, 72 h); conditions: mouse
[2] = tested on: Leishmania braziliensis promastigotes; experiment: Leishmanicidal activity against L. braziliensis promastigotes (XTT, 72 h); conditions: for IC50: 72 h; for selectivity ratio at 72 h: mouse (RAW cells), Leishmania braziliensis (parasite), L. brasiliensis SI (selectivity index, cytotoxicity/anti-protozoal activity); for selectivity ratio at 72 h / L. brasiliensis SI (selectivity index, cytotoxicity/anti-protozoal activity): IC50 RAW cells / IC50 L. braziliensis
[3] = tested on: Leishmania amazonensis promastigotes; experiment: Leishmanicidal activity against L. amazonensis promastigotes (XTT, 72 h); conditions: for IC50: 72 h; for selectivity ratio at 72 h: mouse (RAW cells), Leishmania amazonensis (parasite), L. amazoniensis SI (selectivity index, cytotoxicity/anti-protozoal activity); for selectivity ratio at 72 h / L. amazoniensis SI (selectivity index, cytotoxicity/anti-protozoal activity): IC50 RAW cells / IC50 L. amazonensis
[4] = tested on: Trypanosoma cruzi epimastigotes; experiment: Trypanocidal activity against T. cruzi epimastigotes (XTT, 72 h); format: cell-based; conditions: for IC50: 72 h; for selectivity ratio at 72 h: mouse (RAW cells), Trypanosoma cruzi (parasite), RAW 264.7 macrophage cells versus T. cruzi epimastigotes, read-out: T. cruzi SI (selectivity index, cytotoxicity/anti-protozoal activity); for selectivity ratio at 72 h / T. cruzi SI (selectivity index, cytotoxicity/anti-protozoal activity): IC50 RAW cells / IC50 T. cruzi
Experimental: Cultures of Trypanosoma cruzi (epimastigotes, donated by the Parasitology Department of INLASA, Tc-INLASA, city, country), were maintained in medium LIT (pH 7.2), supplemented with 10% FBS and incubated at 26 °C. Medium changes were made every 72 h to maintain a viable parasitic population. Trypanocidal activity was determined according to Muelas-Serrano with some modifications. Samples were dissolved in DMSO (maximum final concentration 1%) at 10 mg/mL. Epimastigotes in logarithmic phase of growth, at a concentration of 3 × 10^6 parasites/mL, were distributed (100 μL/well) in 96-well flat bottom microtiter plates. Samples at different concentrations (3.1–100 μg/mL) were added (100 μL). Benznidazole (3.1–100 μg/mL) was used as the control drug. Assays were performed in triplicates. The microwell plates were incubated for 72 h at 26 °C. After incubation, a solution of XTT (1 mg/mL) in PBS (pH 7.0 at 37 °C) with PMS (0.06 mg/mL) was added (50 μL/well) and incubated for 4 h at 26 °C. The optical density of each well was measured and the IC50 values were calculated. A negative control experiments with only 1% DMSO was carried out, showing that the solvent by itself has no antiparasitic activity.

[5] = tested on: Raw 264.7 murine macrophage cell line; experiment: Cytotoxicity on RAW cells (resazurin, 72 h); conditions: read-out: Cytotoxicity IC50; RAW cells, 72 h, average ± SD of at least three experiments
CB2 receptor = conditions: cited from earlier work
[6] = tested on: Leishmania amazonensis promastigotes; conditions: stated as previously investigated and reported, read-out: IC50 against L. amazonesis promastigotes; cited from earlier work
[7] = RAW 264.7 macrophage cells, Cytotoxicity IC50, RAW cells, 72 h, average ± SD of at least three experiments
[8] = read-out: L. brasiliensis IC50, promastigotes, 72 h, average ± SD of at least three experiments
[9] = Leishmania amazonensis, read-out: L. amazoniensis IC50, promastigotes, 72 h, average ± SD of at least three experiments
[10] = epimastigotes, average ± SD of at least three experiments, read-out: T. cruzi IC50
[11] = read-out: L. amazoniensis IC50, promastigotes, average ± SD of at least three experiments
[12] = Trypanosoma cruzi, epimastigotes, average ± SD of at least three experiments, read-out: T. cruzi IC50
[13] = read-out: L. brasiliensis IC50, promastigotes, average ± SD of at least three experiments

Row | SMILES | IC50 at 72 h [1, 7] [µM] | IC50 [2, 8] [µM] | selectivity ratio at 72 h [2] | IC50 [3, 9] [µM] | selectivity ratio at 72 h [3] | selectivity ratio at 72 h [4] | IC50 [4, 12] [µM] | IC50 at 72 h [1] [µM] | also measured
1 | COc1ccc2c(c1)-c1cc(CO)ccc1CO2 [8a, (2-Methoxy-6H-benzo[c]chromen-9-yl)methanol] | 82.6 ± 9.5 | 248 ± 54.1 | 0.3 | 132 ± 29.3 | 0.6 | 1.3 |  |  | IC50 ([4]; Trypanosoma cruzi, read-out: T. cruzi IC50, epimastigotes, 72 h, average ± SD of at least three experiments): 66.6 µM; IC50 [4, 10]: 66 ± 18.2 µM
2 | COc1ccc2c(c1)-c1cc(CO)ccc1C(C)O2 (stereo not shown) [8b, (2-Methoxy-6-methyl-6H-benzo[c]chromen-9-yl)methanol] | 37.1 ± 3.9 | 156 ± 23.4 | 0.2 |  |  | 1 | 35.9 ± 11.7 |  | L. amazoniensis SI (selectivity index, cytotoxicity/anti-protozoal activity) [3]: 0.2; IC50 [3, 11]: 156 ± 58.5 µM
3 | COc1ccc2c(c1)-c1cc(CO)ccc1C(C)O2 (stereo not shown) [8c, (2-Methoxy-6-methyl-6H-benzo[c]chromen-9-yl)methanol] |  |  |  |  |  |  |  |  | IC50 [5]: 52.7 ± 9 µM; L. brasiliensis SI (selectivity index, cytotoxicity/anti-protozoal activity) [2]: 0.4; IC50 [2, 13]: 129 ± 24.6 µM; L. amazoniensis SI (selectivity index, cytotoxicity/anti-protozoal activity) [3]: 0.7; IC50 [3, 11]: 71.8 ± 12.5 µM; T. cruzi SI (selectivity index, cytotoxicity/anti-protozoal activity) [4]: 0.8; IC50 [4, 10]: 67.1 ± 31.2 µM
4 | CCC1Oc2ccc(OC)cc2-c2cc(CO)ccc21 (stereo not shown) [8d, (6-Ethyl-2-methoxy-6H-benzo[c]chromen-9-yl)methanol] | 30 ± 3.7 | 45.9 ± 20.3 | 0.7 | 71.4 ± 1.1 | 0.4 | 0.6 | 51.8 ± 9.2 |  | 
5 | CCC1Oc2ccc(OC)cc2-c2cc(CO)ccc21 (stereo not shown) [8e, (6-Ethyl-2-methoxy-6H-benzo[c]chromen-9-yl)methanol] |  |  |  |  |  |  |  |  | IC50 [5]: 44.4 ± 11.5 µM; L. brasiliensis SI (selectivity index, cytotoxicity/anti-protozoal activity) [2]: 1.0; IC50 [2, 13]: 45.1 ± 19.2 µM; L. amazoniensis SI (selectivity index, cytotoxicity/anti-protozoal activity) [3]: 0.6; IC50 [3, 11]: 70.3 ± 3.7 µM; T. cruzi SI (selectivity index, cytotoxicity/anti-protozoal activity) [4]: 1.2; IC50 [4, 10]: 37 ± 0.7 µM
6 | CCC1(CC)Oc2ccc(OC)cc2-c2cc(CO)ccc21 [8f, (6,6-Diethyl-2-methoxy-6H-benzo[c]chromen-9-yl)methanol] | 43.6 ± 15.1 | 46.9 ± 5 | 0.9 | 36.9 ± 3.4 | 1.2 | 4.2 | 10.4 ± 0.3 |  | 
7 | CCCCC1(CCCC)Oc2ccc(OC)cc2-c2cc(CO)ccc21 [8g, (6,6-Dibutyl-2-methoxy-6H-benzo[c]chromen-9-yl)methanol] |  | 29.3 ± 1.4 | 1.2 | 25.4 ± 1.1 | 1.4 | 1.5 | 22.8 ± 8.5 | 35.3 ± 17.5 | 
8 | COc1ccc2c(c1)OC(C)(C)c1ccc(CO)cc1-2 [10a, (3-Methoxy-6,6-dimethyl-6H-benzo[c]chromen-9-yl)methanol] |  | 37.4 ± 1.1 | 1.6 | 66.6 ± 7.4 | 0.9 | 0.7 | 88.4 ± 12.2 | 59.2 ± 25.9 | 
9 | COc1cccc2c1-c1cc(CO)ccc1C(C)(C)O2 [10b, (1-Methoxy-6,6-dimethyl-6H-benzo[c]chromen-9-yl)methanol] |  | 48.1 ± 18.5 | 1 | 180 ± 21.9 | 0.3 | 0.5 | 92.5 ± 14.8 | 48.1 ± 18.5 | 
10 | Cc1ccc2c(c1)-c1cc(CO)ccc1C(C)(C)O2 [10c, (2,6,6-Trimethyl-6H-benzo[c]chromen-9-yl)methanol] | 39.3 ± 1.6 | 39.3 ± 2.4 | 1 | 64.9 ± 12.6 | 0.6 | 1.3 | 31.5 ± 7.9 |  | 
11 | Cc1ccc2c(c1)OC(C)(C)c1ccc(CO)cc1-2 [10d, (3,6,6-Trimethyl-6H-benzo[c]chromen-9-yl)methanol] |  | 40.1 ± 8.3 | 0.9 | 51.9 ± 13.8 | 0.7 | 1.1 | 33 ± 3.9 | 35.4 ± 7.9 | 
12 | CC1(C)Oc2ccccc2-c2cc(CO)ccc21 [10e, (6,6-Dimethyl-6H-benzo[c]chromen-9-yl)methanol] | 62.4 ± 6.2 | 74.9 ± 16.6 | 0.8 | 91.6 ± 5.4 | 0.7 | 1.2 | 50.8 ± 6.2 |  | 
13 | CC(C)c1ccc2c(c1)-c1cc(CO)ccc1C(C)(C)O2 [10f, (2-Isopropyl-6,6-dimethyl-6H-benzo[c]chromen-9-yl)methanol] |  | 18.1 ± 0.7 | 0.5 | 15.6 ± 2.8 | 0.6 | 0.7 | 12.4 ± 3.5 | 8.9 ± 3.5 | 
14 | CC(C)c1ccc2c(c1)OC(C)(C)c1ccc(CO)cc1-2 [10g, (3-Isopropyl-6,6-dimethyl-6H-benzo[c]chromen-9-yl)methanol] |  | 19.1 ± 1.1 | 1.1 | 21.2 ± 7.1 | 1 | 1.6 | 14.2 ± 4.2 | 22 ± 7.1 | 
15 | CCCCCc1ccc2c(c1)-c1cc(CO)ccc1C(C)(C)O2 [10h, (6,6-Dimethyl-2-pentyl-6H-benzo[c]chromen-9-yl)methanol] |  | 16.4 ± 0.3 | 0.8 | 16.8 ± 1.9 | 0.8 | 2 | 6.4 ± 0.3 | 12.9 ± 3.2 | 
16 | O=C(Cn1ccnc1[N+](=O)[O-])NCc1ccccc1 [Benznidazole, reference compound] |  |  |  |  |  |  | 19.2 ± 7.7 |  | IC50 [5]: 74.7 ± 9.1 µM; T. cruzi SI (selectivity index, cytotoxicity/anti-protozoal activity) [4]: 3.9
17 | CCCCCc1cc(O)c2c(c1)OC(C)(C)c1ccc(C)cc1-2 [Cannabinol] |  |  |  |  |  |  |  |  | affinity for the CB2 receptor compared to THC (CB2 receptor): 10 times
18 | CCCCCCCCCCCCCCCCOP(=O)([O-])OCC[N+](C)(C)C [Miltefosine, reference compound] |  | 13 ± 1.2 |  |  |  |  |  |  | 
19 | COc1ccc2c(c1)-c1cc(CO)ccc1C(C)(C)O2 [compound 1, pulchrol] |  | 59.2 ± 11.8 |  |  |  |  | 18.5 ± 9.6 |  | IC50 [5]: 30.7 ± 1.1 µM; L. brasiliensis SI (selectivity index, cytotoxicity/anti-protozoal activity) [2]: 0.5; L. amazoniensis SI (selectivity index, cytotoxicity/anti-protozoal activity) [3]: 0.4; T. cruzi SI (selectivity index, cytotoxicity/anti-protozoal activity) [4]: 1.7; IC50 [6]: 77.7 µM
